Measured values as given in patent publication US20130196052A1, “ANTIMICROBIAL/ANTIBACTERIAL MEDICAL DEVICES COATED WITH TRADITIONAL CHINESE MEDICINES” (ETHICON, INC., priority 2009, published 2013).

Tests used:
[1] = Particle size analysis by laser diffraction; assay type: physicochemical; details: commercial grade, needle-like crystals
Experimental: Studies were run using sutures coated with the sodium houttuyfonate antimicrobial coatings disclosed herein, with the sodium houttuyfonate coatings prepared using either ground or unground sodium houttuyfonate. The sutures were coated at two coating levels, using the coating method described hereinabove. Particle size analysis was performed using a Beckman Coulter model LS 320 laser diffraction particle size analyzer. Results for these studies are presented below in Tables 5-7 and graphically depicted in FIGS. 1 and 2.

[2] = test system: Micrococcus catarrhalis, Staphylococcus aureus, Bacillus influenzae, pneumococcus, Escherichia coli, Bacillus dysenteria, Bacillus proteus, Bacillus …; details: in words; cited from earlier work
[3] = test system: Bacillus typhi, and Leptopira; details: in words; cited from earlier work
[4] = in words; cited from earlier work
[5] = cited from earlier work
susceptible strains = details: in words; cited from earlier work

**Q.** With `CCCCCCCCCC(=O)CC(O)S(=O)(=O)O` (centres unmarked) [Commercial grade sodium houttuyfonate, sodium houttuyfonate] as the molecule, how does the “particle size distribution, mean” value [1] read?
**A.** The value was “approximately 145 μm”.

**Q.** With `CCCCCCCCCC(=O)CC=O` [Houttuynin, decanoyl acetaldehyde] as the molecule, how does the “inhibitory effect in vitro” value [2] read?
**A.** Its value is “marked inhibitory effect”.

**Q.** And the effect in vitro [3]?
**A.** The effect in vitro was “strong effect”.

**Q.** And the stability [4]?
**A.** The stability was “unstable and prone to polymerize”.

**Q.** For `CCCCCCCCCC(=O)CC(O)S(=O)(=O)O` (centres unmarked) [sodium houttuyfonate], which “solubility in cold water” value ([5]; cold water) is on record?
**A.** Its value is “only slightly soluble”.

**Q.** What about the “solubility in most organic solvents” value ([5]; organic solvents such as acetonitrile and methanol) of the same molecule?
**A.** The value was “only slightly soluble”.

**Q.** And the stability [4]?
**A.** Its stability is “more stable”.

**Q.** For `Oc1cc(Cl)ccc1Oc1ccc(Cl)cc1Cl` [triclosan], which “mode of antibacterial activity” value (susceptible strains) is on record?
**A.** Its value is “predominantly bacteriostatic activity”.
